Experimental data reported in patent US11332483B2, “Naphthoquinone containing gold carbene complexes and methods of uses thereof” (BOARD OF REGENTS, THE UNIVERSITY OF TEXAS SYSTEM, priority 2017, dated 2022).
Where two headings read alike, the source gives them in different places.

Tests used:
[1] = system: A549 lung cancer cells; test: Cell proliferation (MTT) assay in A549 lung cancer cells; assay type: cell-based, human; conditions: for Fold Difference relative to 1: A549 IC50 relative to complex 1
Description: (§1) Cells were harvested and seeded into 96-well culture plates (Costar 07-200-90) in 100 μL of culture media. They were allowed to incubate overnight at 37° C. in the presence of 5% CO2. A549 was seeded at a density of 1000 cells/well, A2780 at 2500 cells/well, A2780CP at 3000 cells/well, and PC-3 at 2000 cells/well. The next day, appropriate serial dilutions of drug stocks in culture media were made. To each well of a 96 well plate was added 100 μL of the appropriate solution. After a total of three days, a […] aliquot of 3 mg/mL tetrazolium dye, 344,5-dimethylthiazol-2-yl)-2,5-diphenyltetrazolium bromide (Alfa Aesar L11939) was added to each well, followed by a 4 hr incubation period at 37° C. The medium was then removed, the resulting formazan was dissolved in […] DMSO and the respective absorbances were measured at 560-650 nm using a microplate reader (Molecular Devices, Sunnyvale, Calif.). Absorbance values were corrected for background and then normalized to wells containing untreated cells to allow for plate-to-plate comparisons. The data are shown as mean inhibition of proliferation or growth as a percentage of control cells and are from 2-3 replicate experiments. Resulting dose response curves were subjected to linear regression analysis (Origin by OriginLab, Inc.) for determination of IC50 values.

[2] = system: A2780 ovarian (wt-p53, platinum sensitive); test: Cell proliferation (MTT) assay in A2780 ovarian cells; assay type: cell-based; conditions: Table 3; error is standard error of the mean
Description: (§2) Further anti-proliferation studies were carried out with complex 1 and its naphthoquinone component 4[H][Cl] using the following cell lines: A2780 ovarian (a wt-p53 cell line sensitive to platinum treatment), 2780CP ovarian (isogenic to A2780 but expressing multi-drug resistance (MDR)), and PC-3 prostate (p53 null) (Table 3).
as §1, with “The data are shown as mean inhibition of proliferation or growth as a percentage of control cells and are from 2-3 replicate experiments. Resulting dose response curves were subjected to linear regression analysis (Origin by OriginLab, Inc.) for determination of IC50 values.” left out

[3] = system: 2780CP ovarian (multi-drug resistant); test: Cell proliferation (MTT) assay in 2780CP ovarian cells; assay type: cell-based; conditions: Table 3; error is standard error of the mean
Description: as §2
as §1, with “The data are shown as mean inhibition of proliferation or growth as a percentage of control cells and are from 2-3 replicate experiments. Resulting dose response curves were subjected to linear regression analysis (Origin by OriginLab, Inc.) for determination of IC50 values.” left out

[4] = system: PC-3 prostate (p53 null); test: Cell proliferation (MTT) assay in PC-3 prostate cells; assay type: cell-based; conditions: Table 3; error is standard error of the mean
Description: as §2
as §1, with “The data are shown as mean inhibition of proliferation or growth as a percentage of control cells and are from 2-3 replicate experiments. Resulting dose response curves were subjected to linear regression analysis (Origin by OriginLab, Inc.) for determination of IC50 values.” left out

[5] = Electrochemical analysis (differential pulse voltammetry) in DMSO; assay type: physicochemical; conditions: 0.1M [N(nBu)4][PF6], 0.1 mM analyte, vs SCE
Description: [Cl] (Guth et al., 2011; Gómez et al., 2003).
1,3-Dimesitylnapthoquinimidazolium chloride (Sanderson et al., 2006; Tennyson et al., 2010), (1,3-dimesityl-4,5-naphthoquino-imidazol-2-ylidene)-silver(I) chloride (Sanderson et al., 2006; Tennyson et al., 2010), (C4H2S)AuCl (Hashmi, et al., 2010) were prepared according to the literature procedures. All other reagents were purchased from commercial sources and used as received, including: [((CH3)3Si)2N]Na (NaHMDS) and silver(I) oxide. CD2Cl2 (99.9%) was purchased from Acros Laboratories in glass ampules and used as received. Solvents were either dried with a solvent purification system from the Inert Innovative Technology, Inc. (dichloromethane, diethyl ether, hexanes, tetrahydrofuran and toluene) or freshly distilled over 3 Å molecular sieves and degassed using three consecutive freeze-pump-thaw cycles prior to use. UV-vis spectra were obtained at ambient temperature with a Hewlett-Packard 8452A diode array spectrophotometer with molar absorptivities reported in M^−1 cm^−1. ^1H and ^13C NMR spectra were recorded on Bruker 300 MHz spectrometer. Spectra were referenced to the residual solvent as an internal standard, for ^1H NMR: CD2Cl2, 5.32 ppm and ^13C NMR: CD2Cl2, 53.84 ppm. High-resolution mass spectra (HRMS) were obtained with an Agilent Technologies 6530 Accurate Mass Q-TOF LC/MS (ESI) and are reported as m/z (relative intensity). Electroanalytical measurements were performed on a CHI620E electrochemical workstation using a silver wire quasi-reference electrode, a platinum disk working electrode and a Pt wire auxiliary electrode in a three-electrode cell under an atmosphere of nitrogen. […] All potentials listed herein were determined by differential pulse voltammetry and referenced to a saturated calomel electrode (SCE) by shifting ferrocene^0/+ to 0.435 V (DMSO) (Aranzaes et al., 2006). Spectroelectrochemistry measurements were obtained at ambient temperature with a custom designed three-electrode cell using Hewlett-Packard 8452A diode array spectrophotometer and CHI620E. Elemental analyses were performed by Midwest Microlab, LLC in Indianapolis, Ind. […] Trypsin (Hyclone SH30236.01) and Dulbecco's Phosphate Buffer Saline (Sigma R5886) were used for general cell maintenance and harvesting. Cell lines were obtained from the ATCC (A549 and PC-3) and Prof. Zahid Siddik at MD Anderson (A2780 and A2780CP). Thiazolyl blue tetrazolium bromide (Alfa Aesar L11939) was used for cell proliferation assays. Cell culture plastic ware consisted of generic T-75 flasks, 80.5 mm diameter culture dishes, and treated 96-well plates.

[6] = system: A549 cells; test: Detection of intracellular ROS by flow cytometry (CM-H2DCFDA); assay type: cell-based, human; conditions: for intracellular ROS increase: A549, dose responsive, 6 h, in words
Description: To establish whether or not the complexes of this disclosure would increase intracellular ROS levels, A549 cells were treated with each complex in a dose responsive manner.
Tumor cells (1×10^6) were plated in a 6-well plate overnight and then incubated with media containing various complexes described at concentrations of 0.625-2.5 μM. Control cells were treated with vehicle only. After a 6 h. incubation, the cells were washed with PBS, detached with 0.250 mL 1× trypsin, collected in a 15 mL conical tube, and pelleted by centrifugation (3 min @ 300 g) at 5° C. The resulting pellet was again washed 2× with cold PBS and pelleted at 5° C. […] The cells were then pelleted, washed with 2 mL PBS, and re-suspended in PBS containing 2 μg/mL propidium iodide (PI, Chemodex P0023) for a final cell concentration of 0.5×10^6 cells/mL. Control samples of unstained cells, cells stained with only CM-H2DCFDA, and cells stained with only PI were also prepared. Each sample was added to one well of a 96-well plate. Samples were then subjected to FACS analysis using a Millipore Guava easyCyte 8 and analyzed using the Guava inCyte software.

[7] = system: thioredoxin reductase (TrxR) in A549 cells; test: Lipoate reduction assay of thioredoxin reductase activity in live cells; assay type: cell-based, human; conditions: for inhibition of TrxR (lipoate reduction): 6 h; for TrxR activity by lipoate reduction, time and dose dependence: A549, in words
Description: To assess whether any or all of the present gold complexes could serve as TrxR inhibitors, standard tests involving the reduction of the oxidized form of the cell-permeable cofactor lipoate to its corresponding reduced form, dihydrolipoate, were carried out. […] [Cl] and 5 (cocktail), auranofin, and doxorubicin for 6 h. Post treatment, the live cells were monitored colorimetrically over 180 min for their ability to reduce lipoate (FIG. 5A).
Cells were harvested and seeded at a density of 10,000 cells/well A549 in 96-well culture plates. They were then incubated overnight at 37° C. and 5% CO2. The next day, appropriate serial dilutions of drug stock in culture media were performed, and 100 μL of the appropriate solution were added to each well. Cells were returned to the incubator for 6 h. Afterwards, the liquid was then removed from each well by vacuum aspiration and replaced by 100 μL of 5 mM lipoate (Tokyo Chemical Industry Co., Ltd. L0207) and 1 mM DTNB (Acros Organics 117540050) in HBSS (Life tech 14025-092). The absorbance of each well at […] was recorded immediately and once every 20 min for three h on a microplate reader (Molecular Devices, Sunnyvale, Calif.). Plates were covered with aluminum foil between readings.

[8] = system: A549 lung cancer cells; test: ICP-MS detection of intracellular Au (cellular uptake)
Description: Roughly 7−8×10^6 cells were grown to 70-80% confluence in T-75 cell culture flasks (Thermo 130190) and treated with respective compound in RPMI medium supplemented with 10% FBS and antibiotics for the desired incubation time. The medium was then removed and cells were washed with 8 mL 1× warm PBS. 2 mL 1×PBS was then added to each flask, and the cells were removed by scraping. Each cell suspension was then pipetted into a clean, labeled 15 mL centrifuge tube (Thermo 339650). Cells were pelleted by centrifuging at 1,000 rpm for 5 min in an Eppendorf 5804 with a swing-bucket rotor. The supernatant was removed by vacuum aspiration, and the pellet was resuspended in 50 μL autoclaved deionized water. Suspension/lysates were then kept at −80° C. until further use. After thawing, the lysates were then sonicated using a Branson Digital Sonifier, and 5 μL aliquots were taken for determination of protein content of the sample. Lysates were digested with 80 μL aqua regia and heated to 65° C. for 1 h. Digested lysates were diluted with 4 mL 3% Trace Metal Grade HCl and gold content was measured on a Perkin Elmer NexION 300× set to detect gold at 197 m/z. Gold concentrations were quantified using the linear range of a standard curve generated by serial dilution of an ICP-MS gold standard (Ricca MSAU1KH-100) in 3% HCl. Values were then normalized to protein content as determined using a Modified Lowry Protein Assay Kit (Thermo 23240) and known concentrations of bovine serum albumin (Fisher 9048-46-8).
The Modified Lowry Assay was used to determine the protein content of each sample for normalization purposes. The standard curve for each run was made from a 2-fold serial dilution of fresh 5 mg/mL BSA solution. Aliquots were diluted to within the linear range of the standard curve using autoclaved DI water, and subjected to the Modified Lowry Assay in round-bottomed 96-well clear plates (Fisher 12565500). […] All other aspects of the procedure were as detailed in the microplate procedure instructions that come with the kit.

[9] = system: Panc-02 cells
[10] = system: A549 cells; conditions: A549, 24 h
Description: Control cells were treated with vehicle only. At 24 h, the media was collected and the cells were washed with PBS. The PBS washing was collected and the attached cells were then subjected to 0.5× trypsin (diluted with PBS) for 2 min. All media and washings were collected, pelleted by centrifugation (3 min @ 300 g) and washed twice with cold PBS. […] After this, 100 μL of cell suspension was added to 1.5 mL centrifuge tubes, followed by 5 μL each of Annexin V-FITC and propidium iodide (PI, 50 μg/mL) solution. Control samples of unstained cells, cells stained with only Annexin V-FITC, and cells stained with only PI were also prepared. Samples were allowed to incubate in the dark for 15 min at ambient temperature. After incubation, each sample was diluted with 200 μL of Annexin V binding buffer, and the resulting 300 μL sample was added to one well of a 96-well plate. Samples were then subjected to FACS analysis using a Millipore Guava easyCyte 8 and analyzed using Guava inCyte software.

[11] = A549 lung cancer cells, MTT, 72 h, read-out: IC50
[12] = A549, higher concentrations (1.25-5.0 μM)
[13] = A549, low concentrations (0.1-0.6 μM)

SMILES	Fold Difference relative to 1 [1]	IC50 [1, 11] [nM]	E1/2 (V) DPV, first reduction, formation of semiquinone radical [5] [V]	E1/2^b (V) DPV, second reduction, formation of quinone dianion [5] [V]	inhibition of TrxR (lipoate reduction) [7, 12]	intracellular ROS increase [6]	inhibition of TrxR (lipoate reduction) [7, 13]	TrxR activity by lipoate reduction, time and dose dependence [7]	also measured
Cc1cc(C)c(-n2c[n+](-c3c(C)cc(C)cc3C)c3c2C(=O)c2ccccc2C3=O)c(C)c1.[Cl-] [Compound 4[H][Cl], 1,3-Dimesitylnaphthoquinimidazolium chloride, reference compound]	13.6	990 ± 120	−0.38	−1.15	became evident				IC50 ([1]; A549 lung cancer cells, MTT, 72 h, listed as 4, read-out: IC50): 994 nM; IC50 ([1]; Table 3, error is standard error of the mean, read-out: IC50 A549 Lung): 994 ± 120 nM; IC50 [2]: 159 ± 58 nM; IC50 [3]: 626 ± 117 nM; IC50 [4]: 136 ± 20 nM; fluorescence associated cell population shift (intracellular ROS increase) ([6]; A549, 2.5 μM, 6 h incubation): ~11 fold
CC(=O)OC[C@H]1O[C@@H]([S-])[C@H](OC(C)=O)[C@@H](OC(C)=O)[C@@H]1OC(C)=O.CCP(CC)CC.[Au+] [Auranofin, auranofin]	22.9	1670 ± 50				minimal or no ROS increase	inhibition of TrxR was apparent		increase in intracellular Au concentrations as compared to complex 1 [8]: 2-5 fold
O=C1[O][Pt]2([NH][C@@H]3CCCC[C@H]3[NH]2)[O]C1=O [oxaliplatin, reference compound]									presence of CRT on cells ([9]; Panc-02, 300 μM): 18.6±2.8 % of cells
Cc1cc(C)c(-n2c3c([n+](-c4c(C)cc(C)cc4C)[c]2[Au-][Cl])C(=O)c2ccccc2C3=O)c(C)c1 [Compound 3, (1,3-Dimesityl-4,5-naphthoquino-imidazol-2-ylidene)-gold(I) Chloride]	165	12100	−0.47	−1.31	remained inactive	minimal or no ROS increase			intracellular Au levels (ICP-MS) [8]: no intracellular Au was detected
Cc1cc(C)c(-n2c3c([n+](-c4c(C)cc(C)cc4C)[c]2[Au-][c]2n(-c4c(C)cc(C)cc4C)c4c([n+]2-c2c(C)cc(C)cc2C)C(=O)c2ccccc2C4=O)C(=O)c2ccccc2C3=O)c(C)c1.[Cl-] [Compound 2]	1		−0.46	−1.31		performed similarly		performed similarly	presence of CRT on cells ([9]; Panc-02, 0.1 μM): 6.1±1.6 % of cells; presence of CRT on cells ([9]; Panc-02, 1.0 μM): 33.4±5.8 % of cells
COc1cccc2c1C(=O)c1c(O)c3c(c(O)c1C2=O)C[C@@](O)(C(=O)CO)C[C@@H]3O[C@H]1C[C@H](N)[C@H](O)[C@H](C)O1 [Doxorubicin, doxorubicin]	1.41				remained inactive	minimal or no ROS increase	little to no inhibition	no inhibition of activity	IC50 ([1]; Homo sapiens, A549 lung cancer cells, MTT, 72 h, read-out: IC50): 103 ± 23 nM; induction of apoptosis (annexin-V/PI) [10]: provided similar results in both the early and late stage apoptotic quadrants
